Measurements published in patent US11510902B2, “Method for preventing or treating non-alcoholic fatty liver disease by antrodins” (Simpson Biotech Co., Ltd., priority 2019, dated 2022).

How the values were obtained:
[1] = test system: Hep G2 cells; assay: Cell viability test (alamar blue); format: cell-based, Human; details: concentration less than 100 μg/ml, 72 hrs
Protocol: (§1) Human hepatoma cell line Hep G2 was cultured in Dulbecco's modified Eagle's medium high glucose (DMEM-HG) containing 10% fetal bovine serum, 100 U/ml penicillin and […] streptomycin at 37° C. under 5% CO2 in an incubator.
Hepasim® was a mixture from Antrodia cinnamomea mycelia, which was prepared from water or organic solvent extract of Antrodia cinnamomea mycelia. The extract of Antrodia cinnamomea mycelia comprised Antrodin B-E. 5×10^3 Hep G2 cells were seeded in a 96-well plate for 24 hrs, and then incubated with different concentrations of Hepasim®, Antrodin B, Antrodin C and Antrodin D for 72 hrs. After treatment, cells were incubated with alamar blue (10%, w/v) for 3 hrs, and then was read at […]. Cell viability was calculated by [(OD570−OD600)test/(OD570−OD600)control]×100.

[2] = test system: Hep G2 cells; assay: Free fatty acids (FFA)-induced lipid accumulation and Oil Red determination; format: cell-based, Human; details: Oil Red; for attenuated lipid accumulation in the cells: vs control group; for cellular lipid accumulation as compared with the control group: FIG. 2
Protocol: as §1
1×10^5 Hep G2 cells were seeded in a 96-well plate and incubated with serum-free cellular medium containing 1% BSA for 24 hrs. To induce lipid accumulation, the above cells were seeded in a mixture of 0.33 mM palmitic acid and 0.66 mM oleic acid for 24 hrs, which were dissolved in serum-free medium with or without Antrodin. After lipid accumulation and Antrodin treatment, cells were washed with PBS and then fixed by 4% paraformaldehyde for 15 mins at room temperature. The fixed cells were washed with PBS for 5 mins, and then rinsed with 60% isopropanol twice; followed by incubation with 1 ml Oil Red kit for 10 mins. For quantitative analysis of cellular lipids, dye in the cellular lipids were extracted with 0.5 ml of isopropanol, and then measured at 490 nm.

[3] = test system: C57BL/6J (B6) mice on high fat diet; assay: High fat diet mice, treating process (20 weeks, dosing 11th to 20th week); format: in vivo; set-up: Malondiadehyde in liver: unit not given here; details: for body weight: 11th to 20th week, high fat diet 20 weeks; for reduction of body weight increasing rate as compared with the high fat diet group: at the end of 20 weeks; for ALT / AST / TC / TG / attenuated the increased ALT as compared with the high fat diet group / attenuated the increased AST as compared with the high fat diet group / attenuated the increased TC as compared with the high fat diet group / attenuated the increased TG as compared with the high fat diet group: serum; for ALT / AST / TC / TG / MDA level increasing rate in liver / Malondiadehyde in liver / Plasma insulin / blood glucose / liver hypertrophy / liver weight / plasma insulin level increasing rate was reduced by / Plasma insulin increasing rate / body weight increasing rate / lipid droplets in the liver, hematoxylin-eosin staining of liver sections / MDA level increasing rate was reduced by / liver appearance: pale color (phenomenon of fatty liver) / attenuated the increased ALT as compared with the high fat diet group / attenuated the increased AST as compared with the high fat diet group / attenuated the increased TC as compared with the high fat diet group / attenuated the increased TG as compared with the high fat diet group / attenuated the increased blood sugar as compared with the high fat diet group: treating process; for Plasma insulin increasing rate / body weight increasing rate: relative to control group; for lipid droplets in the liver, hematoxylin-eosin staining of liver sections: FIG. 5; for MDA level increasing rate was reduced by: liver; for liver appearance: pale color (phenomenon of fatty liver): FIG. 4
Protocol: 2.1 8-week-old male C57BL/6J (B6) mice were used, which were purchased from the National Laboratory Animal Center (Taipei, Taiwan). All animals were maintained at an animal room at a temperature of 23±2° C., and 12 hrs light/12 hrs dark cycle.
According to the “Healthy food of liver health effects assessment” (Taiwan Food and Drug Administration, Taiwan), all 8-week test mice were randomized into a control group, a high fat diet group, and test (high fat diet with different dosage of Hepasim®, Antrodin B or Antrodin C) groups. Each group contained 3-4 mice.
The control group was given 20 weeks of normal diet, and all other groups were given 20 weeks of high fat diet. […] Body weights of the mice in each group were recorded weekly. At the end of 20 weeks, all mice were sacrificed by CO2 overdose. At the time of death of the mouse, blood was collected from the heart of the mouse. To separate the serum, whole blood was centrifuged in a refrigerated centrifuge at 15,700×g at 4° C. for 5 minutes. Livers were removed from the mice, and then rinsed in ice-cold saline. Liver samples were divided for various assays and histological assessment.
Stored liver samples (0.1 g) were homogenized in 1 ml PBS, and then was centrifuged in a refrigerated centrifuge at 15,700×g at 4° C. for 5 minutes to remove pellets. The levels of aspartate aminotransferase (AST), alanine aminotransferase (ALT), total cholesterol (TC) and total triglyceride (TG) of the serum and the liver were measured by corresponding detection kits (Randox). Blood sugar in whole blood was detected by blood sugar machine (Roche). Plasma insulin was detected by Insulin mouse ELISA kit (Invitrogen). Malondialdehyde (MDA) level in liver was measured by using Lipid Peroxidation Assay Kit (Colorimetric/Fluorometric) (abcam, #ab118977). Liver samples were divided for various assays and histological assessment.
The livers were removed from the mice, and then fixed in 10% neural formalin. Liver samples were dehydrated by placing in ethanol at different concentrations (30, 50, 70, 95, 99.5%) and xylene. Finally, liver samples were embedded in paraffin section. For hematoxylin-eosin staining, the liver tissue sections were placed in xylene for 30 minutes for dewaxing, and then sequentially placed in 99.5% ethanol for 10 minutes, 90% ethanol for 5 minutes, 70% ethanol for 1 minute, 50% ethanol for 1 minute and 30% ethanol for 1 minutes for rehydration, and then soaked in distilled water for 10 minutes. To stained nuclei, the samples were soaked in hematoxylin solution for 4 minutes, and then soaked in distilled water for several minutes, followed by soaking in eosin solution for 2 minutes to stain cytoplasm, and then washed in distilled water for 10 minutes. Finally, samples were sequentially placed in 90% ethanol for 2 minutes, 99.5% ethanol for 2 minutes and xylene for 20 minutes, and then mounted by mounting medium.
All results were expressed as mean±SD. Significant differences were analyzed with two-tailed Student's t-test. P<0.05 represents the statistical difference between two groups.

[4] = "10%" Antrodin (so in the source)
[5] = "30%" Antrodin (so in the source)
[6] = treated with "10%" Antrodin (so in the source)
[7] = treated with "30%" Antrodin (so in the source)

CC(C)=CCOc1ccc([C@H]2C(=O)N(O)C(=O)[C@@H]2CC(C)C)cc1 (relative stereo) [Antrodin D, 3R*,4S*-1-hydroxy-3-isobutyl-4-[4-(3-methyl-2-butenyloxy)phenyl]pyrrolidine-2,5-dione]
cytotoxicity to Hep G2 cells [1]: no cytotoxicity
attenuated lipid accumulation in the cells ([2]; 100 μg/ml): 18.6%
cellular lipid accumulation as compared with the control group [2]: significantly reduced

CC(C)=CCOc1ccc(C2=C(CC(C)C)C(=O)NC2=O)cc1 [Antrodin B, 3-isobutyl-4-[4-(3-methyl-2-butenyloxy)phenyl]-1H-pyrrol-2,5-dione]
cytotoxicity to Hep G2 cells [1]: no cytotoxicity
attenuated lipid accumulation in the cells ([2]; 10 μg/ml): 12.8%
attenuated lipid accumulation in the cells ([2]; 100 μg/ml): 9.3%
cellular lipid accumulation as compared with the control group [2]: significantly reduced
body weight ([3]; 10 mg/Kg oral gavage every day): 37.14 ± 5.18 g
reduction of body weight increasing rate as compared with the high fat diet group ([3]; 10 mg/Kg): 14%
ALT ([3]; 10 mg/Kg): 29.36 ± 6.17 U/l
AST ([3]; 10 mg/Kg): 44.39 ± 7.06 U/l
TC ([3]; 10 mg/Kg): 266.61 ± 25.99 mg/dL
TG ([3]; 10 mg/Kg): 189.57 ± 9.35 mg/dL
MDA level increasing rate in liver ([3]; 10 mg/Kg): 202.8%
Malondiadehyde in liver ([3]; 10 mg/Kg): 2.15 ± 0.58
Plasma insulin ([3]; 10 mg/Kg): 0.99 ± 0.41 ng/mL
blood glucose ([3]; 10 mg/Kg): 367.20 ± 34.40 mg/dL
liver hypertrophy ([3]; 10 mg/Kg): significantly inhibited
liver weight ([3]; 10 mg/Kg): 1.39 ± 0.33 g
plasma insulin level increasing rate was reduced by ([3]; 10 mg/Kg): 223.6%
Plasma insulin increasing rate ([3]; 10 mg/Kg): 80%
body weight increasing rate ([3]; 10 mg/Kg): 21.1%
body weight ([3]; 30 mg/Kg oral gavage every day): 41.82 ± 2.61 g
ALT ([3]; 30 mg/Kg): 29.38 ± 11.45 U/l
AST ([3]; 30 mg/Kg): 53.64 ± 9.99 U/l
TC ([3]; 30 mg/Kg): 287.73 ± 48.26 mg/dL
TG ([3]; 30 mg/Kg): 187.77 ± 6.53 mg/dL
MDA level increasing rate in liver ([3]; 30 mg/Kg): 97.2%
Malondiadehyde in liver ([3]; 30 mg/Kg): 1.4 ± 0.56
Plasma insulin ([3]; 30 mg/Kg): 1.84 ± 0.93 ng/mL
blood glucose ([3]; 30 mg/Kg): 389.00 ± 41.63 mg/dL
liver weight ([3]; 30 mg/Kg): 1.5 ± 0.25 g
plasma insulin level increasing rate was reduced by ([3]; 30 mg/Kg): 69.1%
Plasma insulin increasing rate ([3]; 30 mg/Kg): 234.5%
body weight increasing rate ([3]; 30 mg/Kg): 36.3%
lipid droplets in the liver, hematoxylin-eosin staining of liver sections [3, 4]: significantly attenuated
lipid droplets in the liver, hematoxylin-eosin staining of liver sections [3, 5]: significantly attenuated
MDA level increasing rate was reduced by [3, 6]: 24.8%
MDA level increasing rate was reduced by [3, 7]: 129.6%
liver appearance: pale color (phenomenon of fatty liver) [3]: not observed

CC(C)=CCOc1ccc(C2=C(CC(C)C)C(=O)N(O)C2=O)cc1 [Antrodin C, 3-isobutyl-4-[4-(3-methyl-2-butenyloxy)phenyl]-1H-pyrrol-1-ol-2,5-dione]
cytotoxicity to Hep G2 cells [1]: no cytotoxicity
attenuated lipid accumulation in the cells ([2]; 10 μg/ml): 20.6%
attenuated lipid accumulation in the cells ([2]; 100 μg/ml): 24.1%
cellular lipid accumulation as compared with the control group [2]: significantly reduced
body weight ([3]; 10 mg/Kg oral gavage every day): 40.06 ± 4.74 g
reduction of body weight increasing rate as compared with the high fat diet group ([3]; 10 mg/Kg): 4.5%
ALT ([3]; 10 mg/Kg): 22.99 ± 5.15 U/l
AST ([3]; 10 mg/Kg): 38.17 ± 5.53 U/l
TC ([3]; 10 mg/Kg): 189.36 ± 58.12 mg/dL
TG ([3]; 10 mg/Kg): 179.28 ± 15.54 mg/dL
attenuated the increased ALT as compared with the high fat diet group ([3]; 10 mg/Kg): ~12.3%
attenuated the increased AST as compared with the high fat diet group ([3]; 10 mg/Kg): ~39.35%
attenuated the increased TC as compared with the high fat diet group ([3]; 10 mg/Kg): ~66.83%
attenuated the increased TG as compared with the high fat diet group ([3]; 10 mg/Kg): ~11.57%
MDA level increasing rate in liver ([3]; 10 mg/Kg): 140.8%
Malondiadehyde in liver ([3]; 10 mg/Kg): 1.71 ± 0.59
Plasma insulin ([3]; 10 mg/Kg): 1.77 ± 0.85 ng/mL
attenuated the increased blood sugar as compared with the high fat diet group ([3]; 10 mg/Kg): about 34.78%
blood glucose ([3]; 10 mg/Kg): 351.80 ± 85.00 mg/dL
liver hypertrophy ([3]; 10 mg/Kg): significantly inhibited
liver weight ([3]; 10 mg/Kg): 1.06 ± 0.25 g
plasma insulin level increasing rate was reduced by ([3]; 10 mg/Kg): 81.8%
Plasma insulin increasing rate ([3]; 10 mg/Kg): 221.8%
body weight increasing rate ([3]; 10 mg/Kg): 30.6%
body weight ([3]; 30 mg/Kg oral gavage every day): 37.50 ± 4.80 g
reduction of body weight increasing rate as compared with the high fat diet group ([3]; 30 mg/Kg): 12.9%
ALT ([3]; 30 mg/Kg): 17.61 ± 3.90 U/l
AST ([3]; 30 mg/Kg): 32.33 ± 2.85 U/l
TC ([3]; 30 mg/Kg): 171.86 ± 40.58 mg/dL
TG ([3]; 30 mg/Kg): 170.63 ± 13.22 mg/dL
attenuated the increased ALT as compared with the high fat diet group ([3]; 30 mg/Kg): ~48.96%
attenuated the increased AST as compared with the high fat diet group ([3]; 30 mg/Kg): ~74.17%
attenuated the increased TC as compared with the high fat diet group ([3]; 30 mg/Kg): ~86.26%
attenuated the increased TG as compared with the high fat diet group ([3]; 30 mg/Kg): ~21.96%
MDA level increasing rate in liver ([3]; 30 mg/Kg): 90.1%
Malondiadehyde in liver ([3]; 30 mg/Kg): 1.35 ± 0.57
Plasma insulin ([3]; 30 mg/Kg): 1.25 ± 0.71 ng/mL
attenuated the increased blood sugar as compared with the high fat diet group ([3]; 30 mg/Kg): about 79.48%
blood glucose ([3]; 30 mg/Kg): 298.60 ± 38.93 mg/dL
liver hypertrophy ([3]; 30 mg/Kg): significantly inhibited
liver weight ([3]; 30 mg/Kg): 1.05 ± 0.24 g
plasma insulin level increasing rate was reduced by ([3]; 30 mg/Kg): 176.3%
Plasma insulin increasing rate ([3]; 30 mg/Kg): 127.3%
body weight increasing rate ([3]; 30 mg/Kg): 22.2%
lipid droplets in the liver, hematoxylin-eosin staining of liver sections [3, 4]: significantly attenuated
lipid droplets in the liver, hematoxylin-eosin staining of liver sections [3, 5]: significantly attenuated
MDA level increasing rate was reduced by [3, 6]: 86%
MDA level increasing rate was reduced by [3, 7]: 136.7%
liver appearance: pale color (phenomenon of fatty liver) [3]: not observed
